Among the data in patent US11279707B2, “NEK inhibitors and methods of use” (DANA-FARBER CANCER INSTITUTE, INC., priority 2017, dated 2022) are IC50 values, retold here.

pIC50: −log10 of the molar value.

Common to all, as to format: biochemical
One assay addresses T1, NEK9 (Homo sapiens, UniProt Q8TD19).
T1 sequence (Q8TD19 1-979): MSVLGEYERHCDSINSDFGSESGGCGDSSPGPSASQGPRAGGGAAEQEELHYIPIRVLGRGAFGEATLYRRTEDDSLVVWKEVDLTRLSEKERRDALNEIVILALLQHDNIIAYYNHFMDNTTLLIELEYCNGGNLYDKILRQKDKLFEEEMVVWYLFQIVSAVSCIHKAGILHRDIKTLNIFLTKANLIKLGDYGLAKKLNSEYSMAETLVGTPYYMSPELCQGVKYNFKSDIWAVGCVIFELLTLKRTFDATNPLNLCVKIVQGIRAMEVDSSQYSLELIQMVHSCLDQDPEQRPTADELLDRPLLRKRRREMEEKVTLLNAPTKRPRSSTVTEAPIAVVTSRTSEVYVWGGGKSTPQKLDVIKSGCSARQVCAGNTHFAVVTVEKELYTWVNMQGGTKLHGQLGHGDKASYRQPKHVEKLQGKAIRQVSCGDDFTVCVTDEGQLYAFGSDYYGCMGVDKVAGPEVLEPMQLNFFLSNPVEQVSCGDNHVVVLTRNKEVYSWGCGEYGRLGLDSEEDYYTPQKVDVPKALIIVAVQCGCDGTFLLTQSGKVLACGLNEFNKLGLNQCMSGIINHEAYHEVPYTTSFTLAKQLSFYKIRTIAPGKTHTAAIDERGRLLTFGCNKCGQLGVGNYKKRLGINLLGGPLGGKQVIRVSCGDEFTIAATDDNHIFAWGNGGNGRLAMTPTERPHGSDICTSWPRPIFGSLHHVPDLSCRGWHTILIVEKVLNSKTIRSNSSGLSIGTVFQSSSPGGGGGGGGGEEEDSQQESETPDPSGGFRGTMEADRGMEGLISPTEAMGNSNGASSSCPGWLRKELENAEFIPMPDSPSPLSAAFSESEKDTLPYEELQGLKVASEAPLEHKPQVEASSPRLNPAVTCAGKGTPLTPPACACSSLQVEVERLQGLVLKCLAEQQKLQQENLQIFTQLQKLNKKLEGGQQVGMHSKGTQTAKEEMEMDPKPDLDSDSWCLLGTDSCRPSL
The assay can be described thus: kinase inhibition, NEK9.

In a further assay the target is NEK7 (Homo sapiens, UniProt Q8TDX7). The assay can be described thus: kinase inhibition, NEK7.
NEK7, sequence (Q8TDX7 whole entry, species assumed): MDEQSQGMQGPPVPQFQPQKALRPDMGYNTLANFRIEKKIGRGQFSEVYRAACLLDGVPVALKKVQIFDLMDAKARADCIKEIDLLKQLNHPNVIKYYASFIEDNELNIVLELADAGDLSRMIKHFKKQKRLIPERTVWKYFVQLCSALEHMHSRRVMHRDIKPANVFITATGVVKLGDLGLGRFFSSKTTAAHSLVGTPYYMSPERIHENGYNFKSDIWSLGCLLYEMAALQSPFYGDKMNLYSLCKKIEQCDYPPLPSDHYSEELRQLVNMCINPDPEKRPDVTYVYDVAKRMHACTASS
The target in the next assay is T2, DRAK1 (Homo sapiens, UniProt Q9UEE5).
T2 sequence (Q9UEE5 1-414): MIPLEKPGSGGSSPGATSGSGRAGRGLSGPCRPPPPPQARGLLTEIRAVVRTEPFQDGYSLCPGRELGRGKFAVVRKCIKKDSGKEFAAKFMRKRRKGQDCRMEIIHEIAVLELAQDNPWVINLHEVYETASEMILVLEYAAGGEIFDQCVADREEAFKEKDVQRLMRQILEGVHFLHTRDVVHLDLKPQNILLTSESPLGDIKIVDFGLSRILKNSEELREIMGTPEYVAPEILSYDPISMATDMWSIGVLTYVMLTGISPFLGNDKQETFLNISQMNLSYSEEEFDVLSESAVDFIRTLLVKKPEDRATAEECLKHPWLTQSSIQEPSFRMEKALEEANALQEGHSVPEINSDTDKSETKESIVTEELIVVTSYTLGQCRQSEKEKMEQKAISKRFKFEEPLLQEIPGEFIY
The assay can be described thus: kinase inhibition, DRAK1.

In another assay the target is GRK4 (Homo sapiens, UniProt P32298). Briefly: kinase inhibition, GRK4.
GRK4, sequence (P32298 whole entry, species assumed): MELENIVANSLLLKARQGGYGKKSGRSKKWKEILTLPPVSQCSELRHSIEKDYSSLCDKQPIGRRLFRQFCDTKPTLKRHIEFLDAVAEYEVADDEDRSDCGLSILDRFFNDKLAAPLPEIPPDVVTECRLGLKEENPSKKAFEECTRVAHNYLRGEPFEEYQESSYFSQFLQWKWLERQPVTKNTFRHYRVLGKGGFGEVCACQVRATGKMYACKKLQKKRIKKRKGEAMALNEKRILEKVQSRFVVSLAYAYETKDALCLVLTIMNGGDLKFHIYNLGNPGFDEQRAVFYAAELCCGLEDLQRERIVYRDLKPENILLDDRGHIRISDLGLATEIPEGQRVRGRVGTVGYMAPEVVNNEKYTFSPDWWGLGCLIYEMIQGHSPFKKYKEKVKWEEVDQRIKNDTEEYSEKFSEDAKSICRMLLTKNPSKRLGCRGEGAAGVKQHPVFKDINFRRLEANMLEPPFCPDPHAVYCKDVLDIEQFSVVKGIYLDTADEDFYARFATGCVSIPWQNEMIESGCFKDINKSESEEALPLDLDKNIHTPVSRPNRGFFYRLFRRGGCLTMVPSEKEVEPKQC
In another assay the target is NEK6 (Homo sapiens, UniProt Q9HC98). Briefly: kinase inhibition, NEK6.
NEK6, sequence (Q9HC98 whole entry, species assumed): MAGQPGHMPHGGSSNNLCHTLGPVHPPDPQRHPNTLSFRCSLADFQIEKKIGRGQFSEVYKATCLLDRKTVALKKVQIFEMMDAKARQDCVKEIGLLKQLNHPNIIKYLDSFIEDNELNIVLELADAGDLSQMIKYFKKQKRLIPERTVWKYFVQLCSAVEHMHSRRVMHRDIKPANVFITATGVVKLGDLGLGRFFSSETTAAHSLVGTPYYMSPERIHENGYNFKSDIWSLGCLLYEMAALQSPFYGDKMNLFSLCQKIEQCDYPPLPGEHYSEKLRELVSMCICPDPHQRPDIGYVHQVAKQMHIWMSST
The next assay concerns the target T3, MERTK (Homo sapiens, UniProt Q12866).
T3 sequence (Q12866 21-999): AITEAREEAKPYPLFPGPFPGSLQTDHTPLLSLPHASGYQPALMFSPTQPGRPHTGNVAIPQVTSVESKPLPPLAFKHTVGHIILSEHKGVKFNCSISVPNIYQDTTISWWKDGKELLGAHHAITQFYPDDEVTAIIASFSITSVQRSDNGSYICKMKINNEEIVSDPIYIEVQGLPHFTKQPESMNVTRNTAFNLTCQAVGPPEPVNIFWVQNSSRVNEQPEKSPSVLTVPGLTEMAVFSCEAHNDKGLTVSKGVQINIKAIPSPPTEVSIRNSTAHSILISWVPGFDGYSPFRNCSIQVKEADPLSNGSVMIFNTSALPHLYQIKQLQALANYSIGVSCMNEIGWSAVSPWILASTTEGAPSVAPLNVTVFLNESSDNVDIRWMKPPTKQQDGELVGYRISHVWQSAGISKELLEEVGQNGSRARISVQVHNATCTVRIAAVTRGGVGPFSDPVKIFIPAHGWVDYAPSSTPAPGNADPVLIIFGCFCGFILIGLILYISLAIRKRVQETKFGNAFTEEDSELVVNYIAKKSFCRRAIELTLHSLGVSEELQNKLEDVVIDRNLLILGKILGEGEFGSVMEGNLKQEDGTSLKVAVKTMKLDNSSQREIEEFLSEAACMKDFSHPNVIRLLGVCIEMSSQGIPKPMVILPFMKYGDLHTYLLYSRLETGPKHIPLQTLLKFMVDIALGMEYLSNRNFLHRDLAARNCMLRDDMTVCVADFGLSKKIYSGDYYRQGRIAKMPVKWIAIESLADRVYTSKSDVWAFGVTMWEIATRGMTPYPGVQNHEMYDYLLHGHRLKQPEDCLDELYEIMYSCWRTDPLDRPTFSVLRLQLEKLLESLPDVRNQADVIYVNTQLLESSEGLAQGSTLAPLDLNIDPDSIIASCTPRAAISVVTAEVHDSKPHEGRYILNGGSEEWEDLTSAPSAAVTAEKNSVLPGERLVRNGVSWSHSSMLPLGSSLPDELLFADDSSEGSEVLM
Briefly: kinase inhibition, MERTK.

Regarding `CN1CCN(c2ccc(Nc3ncc4c(n3)n3c(cc5ccccc53)c(=O)n4C)cc2)CC1` [Compound I-1], the pIC50 was no less than 7.30 against NEK9; 6.00 to 6.60 at NEK7; 6.60 to 7.30 against DRAK1; 5.30 to 6.00 on GRK4; 6.60 to 7.30 on NEK6; 6.00 to 6.60 at MERTK.

Take `COc1cc(N2CCC(O)CC2)ccc1Nc1ncc2c(n1)n1c(cc3ccccc31)c(=O)n2C` [Compound I-2]: the negative logarithm of the IC50 (pIC50) at NEK9 is 6.60 to 7.30; against NEK7, 6.60 to 7.30; against DRAK1, 6.60 to 7.30; at NEK6, 6.00 to 6.60; on MERTK, no more than 5.30.

Consider `COc1cc(N2CCN(C)CC2)ccc1Nc1ncc2c(n1)n1c(cc3ccccc31)c(=O)n2C` [Compound I-3], for which the pIC50 is 6.60 to 7.30 on NEK9; 6.60 to 7.30 on NEK7; 6.60 to 7.30 on DRAK1; 6.60 to 7.30 against NEK6; no more than 5.30 on MERTK.

For the compound `COc1cc(C(=O)N2CCC(N3CCN(C)CC3)CC2)ccc1Nc1ncc2c(n1)n1c(cc3ccccc31)c(=O)n2C` [Compound I-4], the pIC50 at NEK9 was 6.00 to 6.60; at NEK7, 5.30 to 6.00; at DRAK1, 5.30 to 6.00; against NEK6, 5.30 to 6.00; against MERTK it was no more than 5.30.

Take `CN1CCN(c2ccc(Nc3ncc4c(n3)n3c(cc5ccccc53)c(=O)n4C)cc2C(F)(F)F)CC1` [Compound I-5]: the pIC50 against NEK9 is 6.60 to 7.30; against NEK7, 5.30 to 6.00; against DRAK1, 6.00 to 6.60; at NEK6, no more than 5.30; at MERTK it was 5.30 to 6.00.

In the case of `COc1cc(C2CCN(C)CC2)ccc1Nc1ncc2c(n1)n1c(cc3ccccc31)c(=O)n2C` [Compound I-6], the pIC50 against NEK9 is 6.60 to 7.30; on NEK7, 6.60 to 7.30; at DRAK1, 6.00 to 6.60; against NEK6, 6.00 to 6.60; against MERTK, no more than 5.30.

As a reminder, the pIC50 is −log10 of the IC50, conventionally taken in molar units.
